# “And” between values parts separate entries of the source, which are not always exact repeats. Equal values may be shown once.
# Experiments:
# [1] = Plasma stability, human; assay type: in vitro ADME
# Source text: Plasma stability is a measure of the stability of small molecules and peptides in plasma and is an important parameter, which can strongly influence the in vivo efficacy of a test compound. Drug candidates are exposed to enzymatic processes (proteinases, esterases) in plasma, and they can undergo intramolecular rearrangement or bind irreversibly (covalently) to proteins.
# [2] = Plasma protein binding, mouse; assay type: in vitro ADME; conditions: read-out: Plasma Protein Binding (% Bound) (converted)
# Source text: Plasma protein binding was a measure of a drug's efficiency to bind to the proteins within blood plasma. The less bound a drug is, the more efficiently it can traverse cell membranes or diffuse. […] In contrast, drugs that remain largely unbound in plasma are generally available for distribution to other organs and tissues.
# [3] = molecular target: T1, ACOT4 (Homo sapiens, UniProt Q8N9L9); experiment: FP-PEG-TAMRA labeling of recombinant ACOT4; assay type: binding; conditions: recombinant enzyme, 20 μM final, pH 7.8
# T1 sequence (Q8N9L9 1-421): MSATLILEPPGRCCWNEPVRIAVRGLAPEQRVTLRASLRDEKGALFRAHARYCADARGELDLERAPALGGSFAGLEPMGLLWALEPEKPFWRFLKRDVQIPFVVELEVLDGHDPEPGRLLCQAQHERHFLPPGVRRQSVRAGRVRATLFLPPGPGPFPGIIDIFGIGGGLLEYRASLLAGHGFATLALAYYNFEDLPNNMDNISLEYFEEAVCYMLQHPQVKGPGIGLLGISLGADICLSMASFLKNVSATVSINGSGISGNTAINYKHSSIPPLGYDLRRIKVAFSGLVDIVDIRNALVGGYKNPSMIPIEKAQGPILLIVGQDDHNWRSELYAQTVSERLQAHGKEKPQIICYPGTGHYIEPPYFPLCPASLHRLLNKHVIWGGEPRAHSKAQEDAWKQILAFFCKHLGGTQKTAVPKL
# Protocol: Additionally, studies were performed to test the selectivity of Compounds 1, 16, 22, and 37 for the FASN thioesterase over its most closely related human homolog, the enzyme called ACOT4 (see FIG. 3). Both proteins were mixed and pretreated with the compound (20 μM final, pH 7.8) before addition of the fluorescent activity probe FP-PEG-TAMRA. Respective fluorescence of the bands was detected on a Hitachi flatbed scanner and a greyscale version used for quantitative analysis using ImageJ. Recombinant forms of each enzyme were incubated with compound 16, compound 1, compound 37, and compound 22. FP-TAMRA was included in this mixture to label the active site of the FASN thioesterase and ACOT4. […] These findings further attest to the high degree of selectivity of compounds 1, 16, 37 and 22 for the FASN thioesterase.
# [4] = Aqueous solubility in pION's buffer; assay type: physicochemical
# [5] = molecular target: T2, FASN (Homo sapiens, UniProt P49327); experiment: Competition with activity-based probe FP-PEG-TAMRA in PC-3 whole cell lysate: FASN; assay type: binding; conditions: PC-3 lysate, 20 μM final, pH 7.8
# T2 construct: lysates of the prostate tumor line (PC3), which expresses FASN; endogenous in cells; host or cells: PC-3 prostate tumour cells (whole cell lysate)
# T2 sequence (P49327 whole entry): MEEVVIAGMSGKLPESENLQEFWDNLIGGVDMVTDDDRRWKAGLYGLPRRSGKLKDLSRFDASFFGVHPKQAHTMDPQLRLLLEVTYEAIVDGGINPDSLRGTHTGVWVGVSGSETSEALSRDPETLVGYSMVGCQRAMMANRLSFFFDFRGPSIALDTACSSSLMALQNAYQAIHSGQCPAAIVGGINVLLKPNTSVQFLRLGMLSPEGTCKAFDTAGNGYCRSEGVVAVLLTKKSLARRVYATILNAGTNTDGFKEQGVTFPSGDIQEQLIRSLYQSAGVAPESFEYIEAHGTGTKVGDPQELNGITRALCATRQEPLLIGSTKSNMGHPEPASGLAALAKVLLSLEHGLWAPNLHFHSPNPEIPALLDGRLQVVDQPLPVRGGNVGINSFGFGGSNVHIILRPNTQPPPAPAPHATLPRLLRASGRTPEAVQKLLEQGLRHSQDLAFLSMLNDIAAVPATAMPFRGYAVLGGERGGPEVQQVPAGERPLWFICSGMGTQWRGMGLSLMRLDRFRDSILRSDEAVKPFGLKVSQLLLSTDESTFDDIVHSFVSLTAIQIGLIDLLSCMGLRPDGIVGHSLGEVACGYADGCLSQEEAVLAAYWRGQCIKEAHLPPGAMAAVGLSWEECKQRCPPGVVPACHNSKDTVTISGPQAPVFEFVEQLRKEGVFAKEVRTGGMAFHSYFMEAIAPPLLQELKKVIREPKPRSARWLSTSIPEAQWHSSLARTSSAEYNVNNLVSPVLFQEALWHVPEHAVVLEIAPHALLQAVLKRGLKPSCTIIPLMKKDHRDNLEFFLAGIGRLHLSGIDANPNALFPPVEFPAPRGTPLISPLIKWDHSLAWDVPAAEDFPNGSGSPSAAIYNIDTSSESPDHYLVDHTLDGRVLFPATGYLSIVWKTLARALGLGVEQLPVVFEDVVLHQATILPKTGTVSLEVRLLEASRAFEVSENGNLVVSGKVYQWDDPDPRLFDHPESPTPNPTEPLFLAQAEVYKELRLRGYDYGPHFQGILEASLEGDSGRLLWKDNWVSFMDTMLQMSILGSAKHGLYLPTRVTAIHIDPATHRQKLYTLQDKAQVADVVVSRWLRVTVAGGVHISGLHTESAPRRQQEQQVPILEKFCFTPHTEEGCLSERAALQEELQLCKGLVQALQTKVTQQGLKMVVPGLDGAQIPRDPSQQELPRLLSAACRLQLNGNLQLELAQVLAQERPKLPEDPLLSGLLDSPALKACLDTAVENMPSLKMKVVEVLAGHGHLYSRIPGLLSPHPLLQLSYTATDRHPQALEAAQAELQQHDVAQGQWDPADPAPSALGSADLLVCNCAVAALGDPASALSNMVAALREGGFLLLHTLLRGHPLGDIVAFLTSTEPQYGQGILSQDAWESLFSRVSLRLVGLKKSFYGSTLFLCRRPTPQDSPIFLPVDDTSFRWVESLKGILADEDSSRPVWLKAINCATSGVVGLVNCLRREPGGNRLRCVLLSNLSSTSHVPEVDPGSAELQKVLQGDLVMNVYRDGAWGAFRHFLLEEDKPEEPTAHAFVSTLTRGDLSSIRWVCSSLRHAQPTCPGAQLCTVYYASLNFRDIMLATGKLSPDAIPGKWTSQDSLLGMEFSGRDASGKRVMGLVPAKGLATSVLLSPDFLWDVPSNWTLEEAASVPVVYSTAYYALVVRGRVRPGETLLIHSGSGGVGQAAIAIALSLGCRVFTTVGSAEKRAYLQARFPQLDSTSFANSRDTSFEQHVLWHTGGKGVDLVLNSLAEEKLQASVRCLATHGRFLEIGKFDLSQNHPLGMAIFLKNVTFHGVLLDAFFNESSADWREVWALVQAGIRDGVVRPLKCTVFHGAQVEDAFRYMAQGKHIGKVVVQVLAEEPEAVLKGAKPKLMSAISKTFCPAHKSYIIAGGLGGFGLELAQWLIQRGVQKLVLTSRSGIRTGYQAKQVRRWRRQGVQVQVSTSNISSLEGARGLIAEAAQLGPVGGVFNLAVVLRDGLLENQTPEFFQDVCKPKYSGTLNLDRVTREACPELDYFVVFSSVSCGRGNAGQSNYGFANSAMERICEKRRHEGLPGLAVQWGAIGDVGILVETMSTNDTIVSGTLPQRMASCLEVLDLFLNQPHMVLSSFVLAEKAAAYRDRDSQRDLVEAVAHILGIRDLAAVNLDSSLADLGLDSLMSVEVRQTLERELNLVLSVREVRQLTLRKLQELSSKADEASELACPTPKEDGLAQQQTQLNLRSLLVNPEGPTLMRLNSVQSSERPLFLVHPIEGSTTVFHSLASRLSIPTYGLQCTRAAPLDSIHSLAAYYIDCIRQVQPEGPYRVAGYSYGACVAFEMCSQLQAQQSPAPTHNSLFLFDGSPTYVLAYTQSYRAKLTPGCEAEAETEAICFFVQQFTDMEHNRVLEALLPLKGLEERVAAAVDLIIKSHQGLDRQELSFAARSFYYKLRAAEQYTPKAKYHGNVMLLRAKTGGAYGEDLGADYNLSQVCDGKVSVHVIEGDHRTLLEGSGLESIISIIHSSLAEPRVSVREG
# Protocol: Studies were conducted to determine the selectivity of compound 16 for FASN over other human thioesterases. The ability of the compounds to bind the FASN holoenzyme was tested by assessing their ability to compete for the binding of an activity-based probe that covalently attaches to the active site of the FASN thioesterase. Thioesterases are members of the serine hydrolase family, which also includes a number of other types of enzymes including proteases, dipeptidyl peptidases, epoxide hydrolases, etc. To help assess the selectivity of compound 16, an activity-based probe polyethyleneglycol-6-carboxytetramethyl-rhodamine (FP-PEG-TAMRA) that binds covalently to the catalytic serine of all serine hydrolases was used. These studies were done by assessing the ability of compound 16 to compete for the binding of the activity-based probe in whole cell lysates. Several analogs of compound 16 were tested in this assay using lysates of the prostate tumor line (PC3), which expresses FASN, along with numerous other serine hydrolases. The PC-3 lysate was incubated with 8 different FASN inhibitors, including compounds 1, 16 and 97. Then the activity-based probe (FP-PEG-TAMRA) was added to each sample to label the serine hydrolases in the lysate.
smiles,measurement,setting,value
"CCC(CC)C(=O)Nc1nc(-c2ccc(S(=O)(=O)N3CCOCC3)cc2)cs1 [Compound 16, 2-Ethyl-N-(4-(4-(morpholinosulfonyl)phenyl)thiazol-2-yl)butanamide]",Plasma Stability (% Remaining at 3 hrs),"[1]; Human, 3 hrs",100/100%
same,plasma stability,[1]; human plasma,good stability
same,fraction unbound at 1 μM,[2]; 1 μM,0.0381
same,fraction unbound at 10 μM,[2]; 10 μM,0.0337
same,activity labeling of ACOT4,[3],without effect
same,solubility,"[4]; aqueous buffer, pH 5.0",0.19 µg/mL and 0.45 µM
same,solubility,"[4]; pH 6.2, aqueous buffer",0.06 µg/mL and 0.14 µM
same,solubility,"[4]; pH 7.4, aqueous buffer",0.13 µg/mL and 0.31 µM
same,inhibition of FASN (blocking of FP-TAMRA binding),[5],showed inhibition of FASN

# Reference: patent US10071976B2, “Small molecule fatty acid synthase inhibitors” (Sanford Burnham Prebys Medical Discovery Institute, priority 2014, dated 2018)
